Biological target: T1, immunocaptured catalase (Homo sapiens, UniProt P04040)
T1 construct: Endogenous catalase activity in cell lysates; endogenous in cells; host or cells: human colorectal cancer cell lines; BE2-M17 human neuroblastoma cells (with or without rotenone)
T1 sequence (P04040 2-527 limits assumed): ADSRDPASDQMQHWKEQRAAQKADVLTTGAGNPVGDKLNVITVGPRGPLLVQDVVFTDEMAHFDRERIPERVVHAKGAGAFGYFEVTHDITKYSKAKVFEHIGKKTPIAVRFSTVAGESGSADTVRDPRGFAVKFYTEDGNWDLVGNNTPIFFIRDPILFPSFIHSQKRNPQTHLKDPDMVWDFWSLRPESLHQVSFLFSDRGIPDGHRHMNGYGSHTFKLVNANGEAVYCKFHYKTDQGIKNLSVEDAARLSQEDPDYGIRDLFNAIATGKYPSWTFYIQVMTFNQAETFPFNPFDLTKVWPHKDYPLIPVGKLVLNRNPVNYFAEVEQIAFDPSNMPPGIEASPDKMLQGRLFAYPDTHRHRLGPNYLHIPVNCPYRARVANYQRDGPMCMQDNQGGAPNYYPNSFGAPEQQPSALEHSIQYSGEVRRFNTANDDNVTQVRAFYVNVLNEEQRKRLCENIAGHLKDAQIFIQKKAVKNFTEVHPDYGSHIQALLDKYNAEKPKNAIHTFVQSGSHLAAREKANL
Test: Relative specific activity of immunocaptured catalase (SpCAT) after incubation with NaSH
Format: biochemical
Conditions: for effect of NaSH on SpCAT: NaSH 0–50 μM
Method: The relative specific activity (activity and quantity) of catalase in the cell lysates was determined using the kit ab118184 from Abcam (Cambridge, MA). The measurements were performed in duplicate as per the manufacturer's protocol. Briefly, catalase in cell lysates (0.1–0.2 mg cell lysates per assay) was immunocaptured within the wells of the microplate. An assay buffer, which contains H2O2 that reacts with a substrate to generate a luminescent product, was added to each well. The presence of catalase in the reaction mixture reduces the production of light and the light produced in each well is thus inversely proportional to the amount of catalase activity. Then, the quantity of catalase was measured by adding to each well an anti-catalase primary detector antibody. After 1 h incubation at RT, the unbound detector antibody was washed away and an HRP-conjugated labelled secondary antibody specific for the primary detector antibody was added to the wells. After 1 h incubation, the wells were again washed and a 3,3′,5,5′-Tetramethylbenzidine (TMB) substrate solution was added to the wells. A blue colour (absorbance at 600 nm) developed in proportion to the amount of catalase bound. Luminescence and absorbance measurements were performed on an EnSpire Multilabel Reader 2300 (PerkinElmer). To check the effect of NaSH on the relative specific activity of catalase, the immunocaptured catalase was incubated with various concentrations of NaSH (0–50 μM) for 5 min at RT before carefully washing twice each well. The protocol above was then followed to determine activity measurement and catalase quantification.

## [Na+].[SH-] [NaSH]
BE2-M17 cells versus rotenone-treated BE2-M17 cells
  response of SpCAT towards NaSH: similar
HCT-15 cancer cells
  effect of NaSH on SpCAT: inhibited
HCT-116 cancer cells
  effect of NaSH on SpCAT: almost unaffected
HT-29 Glc−/+ control cell line
  effect of NaSH on SpCAT: almost unaffected
MDST8 cancer cells
  effect of NaSH on SpCAT: activated
